Measured values: patent US9617267B2, “Compounds and methods for kinase modulation, and indications therefor” (Plexxikon Inc., priority 2009, dated 2017)

Assays:
B-Raf [1] = target: B-Raf (Homo sapiens (Human), UniProt P15056); assay: B-Raf kinase activity biochemical assay (AlphaScreen, biotin-MEK1 phosphorylation); conditions: B-Raf
Experimental: (§1) Compounds to be tested are diluted in dimethyl sulfoxide to a concentration of 0.1 mM. These are serially diluted 15 μL into 30 μL of dimethyl sulfoxide seven times in 96 well plates for a total of 8 dilution points, and for each dilution point 1 μL is added to a well of an assay plate. […] The reaction is started with addition of 10 μL of 200 μM ATP (i.e. final 100 μM ATP). After incubation of the kinase reaction for 45 minutes at room temperature, 5 μL/well of Stop Solution is added (25 mM Hepes pH 7.5, 100 mM EDTA, 0.01% BSA with donor beads (Streptavidin coated beads, Perkin Elmer), acceptor beads (Protein A coated, Perkin Elmer), and anti phosphor MEK1/2 antibody (CellSignal), each at final concentration 10 μg/mL). The plates are incubated for 3 hours at room temperature and read on Envision reader (Perkin Elmer). […] The signal vs. compound concentration is used to determine the IC50.

B-Raf [2] = assay: as above; conditions: for Biochemical activity ratio B/V600E: ratio of IC50 B-Raf / B-Raf V600E; for Biochemical activity ratio B/C: ratio of IC50 B-Raf / c-Raf-1
Experimental: as §1

B-Raf V600E = B-Raf V600E (Homo sapiens (Human), UniProt P15056, V600E); assay: B-Raf V600E kinase activity biochemical assay (AlphaScreen, biotin-MEK1 phosphorylation); conditions: for IC50: B-Raf V600E; for Biochemical activity ratio V600E/C: ratio of IC50 B-Raf V600E / c-Raf-1
B-Raf V600E, sequence (P15056 whole entry V600E): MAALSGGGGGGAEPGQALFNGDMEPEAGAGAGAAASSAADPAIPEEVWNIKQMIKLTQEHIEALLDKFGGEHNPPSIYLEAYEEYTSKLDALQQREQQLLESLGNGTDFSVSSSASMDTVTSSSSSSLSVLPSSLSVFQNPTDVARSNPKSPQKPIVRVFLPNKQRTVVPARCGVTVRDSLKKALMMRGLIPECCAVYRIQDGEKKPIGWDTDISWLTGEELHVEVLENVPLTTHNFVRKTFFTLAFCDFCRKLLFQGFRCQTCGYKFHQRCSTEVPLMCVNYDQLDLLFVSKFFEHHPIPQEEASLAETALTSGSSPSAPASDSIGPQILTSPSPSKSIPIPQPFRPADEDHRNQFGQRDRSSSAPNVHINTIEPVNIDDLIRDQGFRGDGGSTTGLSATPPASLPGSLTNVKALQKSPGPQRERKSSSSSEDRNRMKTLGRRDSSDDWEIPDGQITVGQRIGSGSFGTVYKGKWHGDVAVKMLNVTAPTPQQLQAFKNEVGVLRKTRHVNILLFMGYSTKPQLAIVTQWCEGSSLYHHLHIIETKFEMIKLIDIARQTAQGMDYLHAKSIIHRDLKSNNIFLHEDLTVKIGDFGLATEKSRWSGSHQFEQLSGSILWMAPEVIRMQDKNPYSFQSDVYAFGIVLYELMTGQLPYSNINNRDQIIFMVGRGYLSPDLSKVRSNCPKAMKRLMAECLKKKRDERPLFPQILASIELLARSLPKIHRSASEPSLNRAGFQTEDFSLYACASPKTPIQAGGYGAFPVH
Experimental: as §1

c-Raf-1 = c-Raf-1 (Homo sapiens, UniProt P04049); assay: c-Raf-1 kinase activity biochemical assay (AlphaScreen, biotin-MEK1 phosphorylation)
c-Raf-1, sequence (P04049 whole entry, looked up): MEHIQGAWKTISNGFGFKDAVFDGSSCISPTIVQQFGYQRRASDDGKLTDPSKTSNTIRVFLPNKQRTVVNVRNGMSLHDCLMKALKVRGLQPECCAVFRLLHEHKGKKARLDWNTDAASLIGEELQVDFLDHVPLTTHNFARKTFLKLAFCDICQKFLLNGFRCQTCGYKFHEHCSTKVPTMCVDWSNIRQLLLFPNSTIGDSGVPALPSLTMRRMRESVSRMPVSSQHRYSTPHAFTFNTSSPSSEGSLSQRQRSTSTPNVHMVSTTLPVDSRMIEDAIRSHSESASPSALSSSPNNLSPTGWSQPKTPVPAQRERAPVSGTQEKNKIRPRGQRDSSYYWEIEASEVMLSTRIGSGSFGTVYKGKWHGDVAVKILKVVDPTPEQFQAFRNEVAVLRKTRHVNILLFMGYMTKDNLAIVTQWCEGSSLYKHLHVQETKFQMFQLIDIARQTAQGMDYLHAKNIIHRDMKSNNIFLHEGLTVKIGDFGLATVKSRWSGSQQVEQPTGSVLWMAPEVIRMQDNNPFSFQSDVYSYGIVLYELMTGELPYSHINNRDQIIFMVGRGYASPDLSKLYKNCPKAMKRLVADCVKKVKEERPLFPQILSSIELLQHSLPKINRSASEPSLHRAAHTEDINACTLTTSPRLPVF
Experimental: as §1

[3] = Relative solubility by turbidity threshold concentration in aqueous buffers (pH 1.5, 4.5, 6.8, 7.4); assay type: physicochemical; conditions: for turbidity threshold (L, M, H) 1.4: pH 1.4 [sic] (method: SGF pH 1.5); for turbidity threshold (L, M, H) 4.5: pH 4.5 (SIF); for turbidity threshold (L, M, H) 6.8: pH 6.8 (SIF); for turbidity threshold (L, M, H) 7.4: pH 7.4 (HEPES)
Experimental: As an indication of relative solubility, the turbidity of compounds in aqueous solutions is assessed. To assess possible compound properties in different physiological compartments, such as stomach, intestine, and blood, a series of aqueous buffers with varying pH is used. Thus each compound is diluted into four different physiologically relevant buffers and solution turbidity is measured by spectrophotometry.
Compounds are dissolved at a concentration of 25 mM in dimethyl sulfoxide, then serially diluted 1:1 into a 96 well plate, diluting 10 times in pure dimethyl sulfoxide, with the final well of each row a dimethyl sulfoxide blank. In an assay plate, 99 μL of appropriate buffer is added to each well, and 1 μL of each sample dilution is added to the buffer, achieving a range of final total concentrations in aqueous solutions having different pH. The buffers used are Simulated Gastric Fluid (SGF-pH 1.5) 0.5M NaCl, pH 1.5; Simulated Intestinal fluid (SIF-pH 4.5 and pH 6.8) 0.05M NaH2PO4, pH 4.5 and 6.8; and Hepes Buffer (HEPES-pH 7.4) 10 mM HEPES, 150 mM NaCl, pH 7.4. Control compounds pyrene, estriol and propranolol HCl are also assessed. Plates are spun and then mixed for 1 minute, and the absorbance is read using a Tecan Safire II to read wavelengths in the visible range (490, 535, and 650 nm) at four locations per well, reflecting the degree of turbidity present. The average optical density for each wavelength in each well is graphed vs. compound concentration, and the concentration at which the curve crosses a threshold O.D. of 0.01 for each wavelength is reported as the endpoint turbidity assay result. The average of the three wavelengths is used to compare turbidity of compounds. Compounds are considered to have low solubility if the threshold concentration is <31.3 μM, moderate solubility if the threshold concentration is 31.3 μM to 250 μM, and high solubility if the threshold concentration is >250 μm.
The following table indicates the relative solubility (L=low, M=moderate, H=high) based on turbidity threshold concentration at each pH for exemplary compounds according to the invention as indicated: […]

CYP2C19 = CYP2C19 (Homo sapiens (Human), UniProt P33261); assay: CYP enzyme inhibition, fluorescent substrate (CEC); conditions: read-out: Cyp IC50 2C19; CYP2C19, substrate CEC
CYP2C19, sequence (P33261 whole entry): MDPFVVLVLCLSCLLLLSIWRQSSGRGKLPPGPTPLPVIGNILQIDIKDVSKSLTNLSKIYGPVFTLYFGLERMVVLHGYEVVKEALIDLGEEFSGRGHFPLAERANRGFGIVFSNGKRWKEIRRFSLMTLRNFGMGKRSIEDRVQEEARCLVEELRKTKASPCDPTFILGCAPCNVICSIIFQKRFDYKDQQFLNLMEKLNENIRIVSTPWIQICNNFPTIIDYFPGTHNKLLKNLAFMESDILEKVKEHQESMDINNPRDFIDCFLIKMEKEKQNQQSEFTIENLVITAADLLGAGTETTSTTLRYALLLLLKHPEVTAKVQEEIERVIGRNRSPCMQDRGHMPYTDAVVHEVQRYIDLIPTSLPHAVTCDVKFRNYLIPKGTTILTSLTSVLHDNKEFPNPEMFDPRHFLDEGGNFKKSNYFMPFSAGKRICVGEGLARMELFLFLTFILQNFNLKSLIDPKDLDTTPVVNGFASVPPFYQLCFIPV
Experimental: CYP (Cytochrome P450) enzymes are the major drug metabolizing enzymes present in the liver. The inhibition of CYP enzyme activity (IC50) for each of CYP1A2, CYP2C19, CYP2C9, CYP2D6, CYP3A4(BFC) and CYP3A4(BQ) is determined for compounds, where inhibition of metabolism of a known substrate leads to a decrease in the fluorescence of the metabolized product. The fluorescence of the product is monitored as a function of compound concentration.
Compounds are dissolved in dimethyl sulfoxide to a concentration of 100 mM. These are diluted 1 μL into 82 μL of acetonitrile. […] These are then serially diluted 1:1 (160 μL to 160 μL co-factor mix) for a total of 10 points. A 10 μL aliquot of this final mixture is dispensed into 384 well assay plates and incubated for 10 minutes at 37° C. […] Assay plates are incubated at 37° C. […] The signal versus compound concentration is used to determine the IC50. The enzymes and substrates for this assay are obtained from BD Biosciences.

B-Raf (Homo sapiens (Human), UniProt P15056), sequence (P15056 whole entry): as the sequence (P15056 whole entry V600E) above, with E600V counted along it

| IC50 (CYP2C19) [µM] | Structure (SMILES) | IC50 (B-Raf [1]) [µM] | Biochemical activity ratio B/V600E (B-Raf [2]) | Biochemical activity ratio B/C (B-Raf [2]) | IC50 (B-Raf V600E) [µM] | Biochemical activity ratio V600E/C (B-Raf V600E) | IC50 (c-Raf-1) [µM] | turbidity threshold (L, M, H) 1.4 [3] | turbidity threshold (L, M, H) 4.5 [3] | turbidity threshold (L, M, H) 6.8 [3] | turbidity threshold (L, M, H) 7.4 [3] |
| --- | --- | --- | --- | --- | --- | --- | --- | --- | --- | --- | --- |
| – | CCCS(=O)(=O)Nc1ccc(F)c(C(=O)c2c[nH]c3ncnc(O)c23)c1F [P-1022, Propane-1-sulfonic acid [2,4-difluoro-3-(4-hydroxy-7H-pyrrolo[2,3-d]pyrimidine-5-carbonyl)-phenyl]-amide] | > 0.1 | 0.1-10 | 0.1-10 | > 0.1 | 0.1-10 | < 0.1 | – | – | – | – |
| – | COc1ccc(S(=O)(=O)Nc2ccc(F)c(C(=O)c3c[nH]c4ncnc(OC)c34)c2F)cn1 [P-1018, 6-Methoxy-pyridine-3-sulfonic acid [2,4-difluoro-3-(4-methoxy-7H-pyrrolo[2,3-d]pyrimidine-5-carbonyl)-phenyl]-amide] | > 0.1 | >10 | >10 | > 0.1 | 0.1-10 | > 0.1 | – | – | – | – |
| – | N#Cc1ncnc2[nH]cc(C(=O)c3c(F)ccc(NS(=O)(=O)c4ccc(C(F)(F)F)cc4)c3F)c12 [P-1023, N-[3-(4-Cyano-7H-pyrrolo[2,3-d]pyrimidine-5-carbonyl)-2,4-difluoro-phenyl]-4-trifluoromethyl-benzenesulfonamide] | > 0.1 | 0.1-10 | 0.1-10 | > 0.1 | >10 | > 0.1 | – | – | – | – |
| – | COc1ccc(S(=O)(=O)Nc2ccc(F)c(C(=O)c3c[nH]c4ncnc(C)c34)c2F)cc1F [P-1036, N-[2,4-Difluoro-3-(4-methyl-7H-pyrrolo[2,3-d]pyrimidine-5-carbonyl)-phenyl]-3-fluoro-4-methoxy-benzenesulfonamide] | > 0.1 | >10 | >10 | < 0.1 | 0.1-10 | < 0.1 | – | – | – | – |
| – | O=C(c1c(F)ccc(NS(=O)(=O)c2ccc(C(F)(F)F)cc2)c1F)c1c[nH]c2ncnc(OC3CCOCC3)c12 [P-1021, N-{2,4-Difluoro-3-[4-(tetrahydro-pyran-4-yloxy)-7H-pyrrolo[2,3-d]pyrimidine-5-carbonyl]-phenyl}-4-trifluoromethyl-benzenesulfonamide] | > 0.1 | 0.1-10 | >10 | > 0.1 | >10 | < 0.1 | – | – | – | – |
| – | CCc1ccc(S(=O)(=O)Nc2ccc(F)c(C(=O)c3c[nH]c4ncnc(C)c34)c2F)cc1 [P-1019, N-[2,4-Difluoro-3-(4-methyl-7H-pyrrolo[2,3-d]pyrimidine-5-carbonyl)-phenyl]-4-ethyl-benzenesulfonamide] | > 0.1 | 0.1-10 | 0.1-10 | > 0.1 | 0.1-10 | > 0.1 | – | – | – | – |
| – | O=C(c1c(F)ccc(NS(=O)(=O)c2ccc(C(F)(F)F)cc2)c1F)c1c[nH]c2nccc(NC3CCOCC3)c12 [P-2014, N-{2,4-Difluoro-3-[4-(tetrahydro-pyran-4-ylamino)-1H-pyrrolo[2,3-b]pyridine-3-carbonyl]-phenyl}-4-trifluoromethyl-benzenesulfonamide] | > 0.1 | 0.1-10 | 0.1-10 | > 0.1 | >10 | < 0.1 | L (low solubility if the threshold concentration is <31.3 μM) | L (low solubility if the threshold concentration is <31.3 μM) | L (low solubility if the threshold concentration is <31.3 μM) | L (low solubility if the threshold concentration is <31.3 μM) |
| > 10 | CCCS(=O)(=O)Nc1ccc(F)c(C(=O)c2c[nH]c3nccc(C(F)(F)F)c23)c1F [P-2015, Propane-1-sulfonic acid [2,4-difluoro-3-(4-trifluoromethyl-1H-pyrrolo[2,3-b]pyridine-3-carbonyl)-phenyl]-amide] | – | – | – | – | – | < 0.1 | M (moderate solubility if the threshold concentration is 31.3 μM to 250 μM) | M (moderate solubility if the threshold concentration is 31.3 μM to 250 μM) | M (moderate solubility if the threshold concentration is 31.3 μM to 250 μM) | M (moderate solubility if the threshold concentration is 31.3 μM to 250 μM) |
| – | O=C(c1c(F)ccc(NS(=O)(=O)c2ccc(C(F)(F)F)cc2)c1F)c1c[nH]c2ncnc(N3CCOCC3)c12 [P-1017, N-[2,4-Difluoro-3-(4-morpholin-4-yl-7H-pyrrolo[2,3-d]pyrimidine-5-carbonyl)-phenyl]-4-trifluoromethyl-benzenesulfonamide] | > 0.1 | 0.1-10 | 0.1-10 | > 0.1 | >10 | > 0.1 | – | – | – | – |
| – | Cc1nn(C)cc1Nc1ncnc2[nH]cc(C(=O)c3c(F)ccc(NS(=O)(=O)c4cc(F)ccc4F)c3F)c12 [P-1143, N-{3-[4-(1,3-Dimethyl-1H-pyrazol-4-ylamino)-7H-pyrrolo[2,3-d]pyrimidine-5-carbonyl]-2,4-difluoro-phenyl}-2,5-difluoro-benzenesulfonamide] | – | – | – | – | – | – | L (low solubility if the threshold concentration is <31.3 μM) | L (low solubility if the threshold concentration is <31.3 μM) | L (low solubility if the threshold concentration is <31.3 μM) | L (low solubility if the threshold concentration is <31.3 μM) |
| > 10 | CCCS(=O)(=O)Nc1ccc(F)c(C(=O)c2c[nH]c3nccc(NC4CCOCC4)c23)c1F [P-2013, Propane-1-sulfonic acid {2,4-difluoro-3-[4-(tetrahydro-pyran-4-ylamino)-1H-pyrrolo[2,3-b]pyridine-3-carbonyl]-phenyl}-amide] | – | – | – | < 0.1 | – | < 0.1 | H (high solubility if the threshold concentration is >250 μm) | H (high solubility if the threshold concentration is >250 μm) | H (high solubility if the threshold concentration is >250 μm) | H (high solubility if the threshold concentration is >250 μm) |
